Assay results taken from patent US7626031B2, “Substituted 3-(diarylmethylene)indolin-2-ones and methods of their use” (Symphony Evolution, Inc., priority 2002, dated 2009).

What was measured:
[1] = target: EGFR (Homo sapiens, UniProt P00533); experiment: Kinase assay, EGFR (33P-ATP incorporation or luciferase-coupled ATP consumption); assay type: biochemical
In short: (§1)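 Kinase activity measured either by γ-33P ATP incorporation into immobilized substrate (MBP or pEY) with scintillation counting, or by luciferase-based ATP consumption with pEY. Enzyme 10 or 20 nM; ATP near each kinase's KM (e.g. 10 or 30 μM); 1 h at room temperature, 1% DMSO, 10-point dose-response.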

[2] = target: IRK (Homo sapiens, UniProt P06213); experiment: Kinase assay, IRK; assay type: biochemical
Procedure: (§2) Kinase activity and compound inhibition are investigated using one or more assay formats. The ATP concentrations for each assay are selected to be close to the Michaelis-Menten constant (KM) for each individual kinase. Dose-response experiments are performed at 10 different inhibitor concentrations in a 384-well plate format. […] Exemplary kinase assays are described below. KDR Assay

[3] = target: Fyn (Homo sapiens, UniProt P06241); experiment: Kinase assay, Fyn; assay type: biochemical
Procedure: as §2

[4] = target: EphA2 (Homo sapiens, UniProt P29317); experiment: Kinase assay, EphA2 (33P-ATP incorporation or luciferase-coupled ATP consumption); assay type: biochemical
Chain of EphA2 (P29317 24-976, species assumed): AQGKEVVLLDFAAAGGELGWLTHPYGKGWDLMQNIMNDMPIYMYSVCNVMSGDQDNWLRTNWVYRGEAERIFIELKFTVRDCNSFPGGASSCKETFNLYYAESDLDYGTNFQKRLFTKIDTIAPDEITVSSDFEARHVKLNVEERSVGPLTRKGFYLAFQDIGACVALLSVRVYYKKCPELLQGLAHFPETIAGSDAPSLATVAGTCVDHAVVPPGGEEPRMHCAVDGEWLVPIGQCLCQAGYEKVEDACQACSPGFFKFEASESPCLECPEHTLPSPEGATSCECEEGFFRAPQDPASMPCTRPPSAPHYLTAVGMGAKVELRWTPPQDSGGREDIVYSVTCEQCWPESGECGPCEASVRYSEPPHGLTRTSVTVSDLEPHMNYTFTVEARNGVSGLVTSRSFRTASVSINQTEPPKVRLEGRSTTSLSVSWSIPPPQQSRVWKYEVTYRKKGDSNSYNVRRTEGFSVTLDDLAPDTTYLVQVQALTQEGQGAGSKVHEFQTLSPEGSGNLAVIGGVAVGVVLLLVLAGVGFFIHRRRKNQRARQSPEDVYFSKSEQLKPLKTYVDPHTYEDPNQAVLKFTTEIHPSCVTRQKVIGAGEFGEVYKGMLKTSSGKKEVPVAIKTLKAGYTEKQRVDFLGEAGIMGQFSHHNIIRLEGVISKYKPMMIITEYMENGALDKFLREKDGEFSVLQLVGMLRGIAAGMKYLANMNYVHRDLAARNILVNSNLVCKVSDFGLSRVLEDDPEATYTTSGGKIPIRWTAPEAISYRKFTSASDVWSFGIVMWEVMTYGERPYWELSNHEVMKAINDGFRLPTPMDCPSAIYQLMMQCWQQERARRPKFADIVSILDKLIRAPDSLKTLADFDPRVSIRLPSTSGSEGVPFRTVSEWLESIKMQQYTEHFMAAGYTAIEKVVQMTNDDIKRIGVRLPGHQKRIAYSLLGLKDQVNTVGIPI
In short: as §1

[5] = target: c-Kit kinase (Homo sapiens, UniProt P10721); experiment: c-Kit AlphaScreen kinase assay; assay type: biochemical
Procedure: as §2
c-Kit biochemical activity was assessed using AlphaScreen™ (Perkin Elmer) technology, described above. Test compounds, ATP, biotinylated poly(Glu, Tyr) and c-Kit kinase were combined in a volume of 20 μL in a 384-well white, medium binding microtiter plate (Greiner). Reaction mixtures were incubated for 1 hr at ambient temperature. Reactions were quenched by addition of 10 uL of […] AlphaScreen bead suspension containing 75 mM Hepes, pH 7.4, 300 mM NaCl, 120 mM EDTA, 0.3% BSA and 0.03% Tween-20. After 16 hr incubation at ambient temperature plates were read using an AlphaQuest reader (Perkin Elmer).

[6] = target: Flt-1 (Homo sapiens, UniProt P17948); experiment: Kinase assay, Flt-1 (33P-ATP incorporation or luciferase-coupled ATP consumption); assay type: biochemical; conditions: read-out: Flt1 IC50
Chain of Flt-1 (P17948 27-1338, species assumed): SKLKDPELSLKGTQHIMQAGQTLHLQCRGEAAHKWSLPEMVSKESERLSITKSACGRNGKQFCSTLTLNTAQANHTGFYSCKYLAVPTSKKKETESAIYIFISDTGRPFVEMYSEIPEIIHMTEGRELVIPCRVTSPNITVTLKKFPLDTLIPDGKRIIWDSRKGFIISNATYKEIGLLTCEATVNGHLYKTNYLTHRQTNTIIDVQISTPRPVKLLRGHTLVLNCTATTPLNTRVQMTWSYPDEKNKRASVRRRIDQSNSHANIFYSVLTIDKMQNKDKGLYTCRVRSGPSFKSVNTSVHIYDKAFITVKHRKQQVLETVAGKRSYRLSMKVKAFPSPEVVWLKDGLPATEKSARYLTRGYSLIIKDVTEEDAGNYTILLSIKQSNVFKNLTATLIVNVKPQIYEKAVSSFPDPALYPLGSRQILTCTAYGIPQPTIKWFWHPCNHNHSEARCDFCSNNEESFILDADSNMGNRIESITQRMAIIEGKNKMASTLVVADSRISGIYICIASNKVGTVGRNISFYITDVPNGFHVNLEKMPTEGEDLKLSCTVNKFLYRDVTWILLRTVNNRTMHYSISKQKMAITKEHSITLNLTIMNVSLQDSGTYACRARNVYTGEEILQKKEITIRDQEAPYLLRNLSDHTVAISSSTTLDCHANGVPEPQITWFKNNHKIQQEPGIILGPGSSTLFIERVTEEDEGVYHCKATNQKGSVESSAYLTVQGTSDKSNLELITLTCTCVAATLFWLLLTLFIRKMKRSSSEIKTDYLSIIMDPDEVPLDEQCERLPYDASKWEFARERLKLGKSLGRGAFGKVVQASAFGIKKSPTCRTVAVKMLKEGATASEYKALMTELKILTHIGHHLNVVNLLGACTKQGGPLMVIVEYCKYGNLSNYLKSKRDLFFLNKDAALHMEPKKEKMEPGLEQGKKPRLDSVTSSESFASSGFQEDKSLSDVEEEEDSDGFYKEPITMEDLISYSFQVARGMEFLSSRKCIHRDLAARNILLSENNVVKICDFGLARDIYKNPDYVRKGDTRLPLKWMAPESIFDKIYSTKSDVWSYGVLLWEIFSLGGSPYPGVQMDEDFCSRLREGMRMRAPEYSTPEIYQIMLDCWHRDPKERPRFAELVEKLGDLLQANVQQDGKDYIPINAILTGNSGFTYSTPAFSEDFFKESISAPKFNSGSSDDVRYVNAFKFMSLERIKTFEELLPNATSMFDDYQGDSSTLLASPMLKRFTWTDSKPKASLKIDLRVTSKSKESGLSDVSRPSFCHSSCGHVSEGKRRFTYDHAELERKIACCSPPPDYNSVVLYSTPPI
Procedure: Kinase assays were performed by measurement of incorporation of γ-^33P ATP into immobilized myelin basic protein (MBP). […] Plates were washed 3× with 100 μl TBS. […] Compound dilutions were performed in DMSO and added to assay wells to a final DMSO concentration of 1%. Each data point was measured in duplicate, and at least two duplicate assays were performed for each individual compound determination. Enzyme was added to final concentrations of 10 nM or 20 nM, for example. A mixture of unlabeled ATP and γ-^33P ATP was added to start the reaction (2×10^6 cpm of γ-^33P ATP per well (3000 Ci/mmole) and either 10 μM or 30 μM unlabeled ATP, typically. The reactions were carried out for 1 hour at room temperature with shaking. Plates were washed 7× with TBS, followed by the addition of 50 μl/well scintillation fluid (Wallac). Plates were read using a Wallac Trilux counter. This is only one format of such assays, various other formats are possible, as known to one of ordinary skill in the art.
Tyrosine kinase activity is determined by 1) measurement of kinase-dependent ATP consumption by in the presence of a generic substrate such as, polyglutamic acid, tyrosine, 4:1 (pEY), by luciferase/luciferin-mediated chemiluminescence or; 2) incorporation of radioactive phosphate derived from ^33P-ATP into a generic substrate which has been adsorbed onto the well surface of polystyrene microtiter plates. Phosphorylated substrate products are quantified by scintillation spectrometry.
as §2

[7] = target: T1, KDR (baculovirus expressed human KDR kinase domain D807-V1356) (Homo sapiens, UniProt P35968); experiment: biochemical
T1 construct: human KDR kinase domain D807-V1356; host or cells: baculovirus expression system
T1 sequence (P35968 807-1356): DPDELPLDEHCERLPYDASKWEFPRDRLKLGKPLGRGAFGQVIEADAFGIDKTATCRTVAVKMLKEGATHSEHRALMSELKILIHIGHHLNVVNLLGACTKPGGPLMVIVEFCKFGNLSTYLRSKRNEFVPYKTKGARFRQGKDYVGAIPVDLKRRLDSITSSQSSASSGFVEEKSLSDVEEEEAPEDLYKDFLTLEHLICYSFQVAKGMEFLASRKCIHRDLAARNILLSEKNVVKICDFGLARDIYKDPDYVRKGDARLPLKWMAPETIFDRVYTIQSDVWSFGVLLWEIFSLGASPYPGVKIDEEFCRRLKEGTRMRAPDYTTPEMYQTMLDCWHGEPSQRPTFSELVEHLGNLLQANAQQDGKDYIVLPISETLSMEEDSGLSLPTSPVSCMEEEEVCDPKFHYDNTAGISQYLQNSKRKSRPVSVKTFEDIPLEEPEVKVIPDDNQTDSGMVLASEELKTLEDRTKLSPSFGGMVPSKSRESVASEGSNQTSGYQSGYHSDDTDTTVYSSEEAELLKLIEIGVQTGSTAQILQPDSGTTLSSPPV
In short: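 Baculovirus human KDR kinase domain (D807–V1356) with ATP near its KM; 10-point dose-response, 4 h at ambient temperature. Activity taken as percent ATP remaining, detected by luciferase–luciferin chemiluminescence.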

[8] = target: PDGFR alpha (Homo sapiens, UniProt P16234); experiment: Kinase assay, PDGFR alpha (33P-ATP incorporation or luciferase-coupled ATP consumption); assay type: biochemical; conditions: read-out: PDGF-R-A IC50
Chain of PDGFR alpha (P16234 24-1089): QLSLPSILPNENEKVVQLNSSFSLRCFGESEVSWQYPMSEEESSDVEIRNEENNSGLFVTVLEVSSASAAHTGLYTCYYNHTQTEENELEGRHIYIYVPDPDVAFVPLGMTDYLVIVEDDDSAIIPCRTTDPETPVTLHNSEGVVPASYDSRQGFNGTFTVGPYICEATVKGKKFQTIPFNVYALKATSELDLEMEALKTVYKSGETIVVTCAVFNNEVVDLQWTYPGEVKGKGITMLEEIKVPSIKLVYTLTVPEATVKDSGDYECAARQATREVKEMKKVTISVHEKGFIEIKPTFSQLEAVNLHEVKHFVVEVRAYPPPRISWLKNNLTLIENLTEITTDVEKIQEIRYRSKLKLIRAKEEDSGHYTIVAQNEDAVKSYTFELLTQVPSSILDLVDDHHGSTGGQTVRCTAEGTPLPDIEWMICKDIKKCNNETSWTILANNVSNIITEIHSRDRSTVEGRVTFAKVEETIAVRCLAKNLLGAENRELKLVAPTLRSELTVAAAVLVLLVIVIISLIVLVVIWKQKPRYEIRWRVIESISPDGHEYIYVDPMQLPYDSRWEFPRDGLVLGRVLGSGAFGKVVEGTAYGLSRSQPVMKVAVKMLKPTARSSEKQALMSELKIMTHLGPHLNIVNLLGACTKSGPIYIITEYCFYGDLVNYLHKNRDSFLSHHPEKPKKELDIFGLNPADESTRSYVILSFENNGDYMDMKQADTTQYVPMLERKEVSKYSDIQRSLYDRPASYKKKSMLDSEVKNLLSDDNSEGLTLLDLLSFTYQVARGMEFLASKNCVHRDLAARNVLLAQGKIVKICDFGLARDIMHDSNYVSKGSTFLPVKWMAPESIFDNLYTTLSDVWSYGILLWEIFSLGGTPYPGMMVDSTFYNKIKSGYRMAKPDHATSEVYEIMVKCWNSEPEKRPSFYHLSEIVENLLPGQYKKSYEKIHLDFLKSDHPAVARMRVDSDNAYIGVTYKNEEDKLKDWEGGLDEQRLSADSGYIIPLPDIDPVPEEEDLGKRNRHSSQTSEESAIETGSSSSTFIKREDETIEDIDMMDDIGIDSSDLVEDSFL
In short: as §1

[9] = target: FGFR1 (Homo sapiens, UniProt P11362); experiment: Kinase assay, FGFR1 (33P-ATP incorporation or luciferase-coupled ATP consumption); assay type: biochemical
In short: as §1

Chain of EGFR (P00533 25-1210, species assumed): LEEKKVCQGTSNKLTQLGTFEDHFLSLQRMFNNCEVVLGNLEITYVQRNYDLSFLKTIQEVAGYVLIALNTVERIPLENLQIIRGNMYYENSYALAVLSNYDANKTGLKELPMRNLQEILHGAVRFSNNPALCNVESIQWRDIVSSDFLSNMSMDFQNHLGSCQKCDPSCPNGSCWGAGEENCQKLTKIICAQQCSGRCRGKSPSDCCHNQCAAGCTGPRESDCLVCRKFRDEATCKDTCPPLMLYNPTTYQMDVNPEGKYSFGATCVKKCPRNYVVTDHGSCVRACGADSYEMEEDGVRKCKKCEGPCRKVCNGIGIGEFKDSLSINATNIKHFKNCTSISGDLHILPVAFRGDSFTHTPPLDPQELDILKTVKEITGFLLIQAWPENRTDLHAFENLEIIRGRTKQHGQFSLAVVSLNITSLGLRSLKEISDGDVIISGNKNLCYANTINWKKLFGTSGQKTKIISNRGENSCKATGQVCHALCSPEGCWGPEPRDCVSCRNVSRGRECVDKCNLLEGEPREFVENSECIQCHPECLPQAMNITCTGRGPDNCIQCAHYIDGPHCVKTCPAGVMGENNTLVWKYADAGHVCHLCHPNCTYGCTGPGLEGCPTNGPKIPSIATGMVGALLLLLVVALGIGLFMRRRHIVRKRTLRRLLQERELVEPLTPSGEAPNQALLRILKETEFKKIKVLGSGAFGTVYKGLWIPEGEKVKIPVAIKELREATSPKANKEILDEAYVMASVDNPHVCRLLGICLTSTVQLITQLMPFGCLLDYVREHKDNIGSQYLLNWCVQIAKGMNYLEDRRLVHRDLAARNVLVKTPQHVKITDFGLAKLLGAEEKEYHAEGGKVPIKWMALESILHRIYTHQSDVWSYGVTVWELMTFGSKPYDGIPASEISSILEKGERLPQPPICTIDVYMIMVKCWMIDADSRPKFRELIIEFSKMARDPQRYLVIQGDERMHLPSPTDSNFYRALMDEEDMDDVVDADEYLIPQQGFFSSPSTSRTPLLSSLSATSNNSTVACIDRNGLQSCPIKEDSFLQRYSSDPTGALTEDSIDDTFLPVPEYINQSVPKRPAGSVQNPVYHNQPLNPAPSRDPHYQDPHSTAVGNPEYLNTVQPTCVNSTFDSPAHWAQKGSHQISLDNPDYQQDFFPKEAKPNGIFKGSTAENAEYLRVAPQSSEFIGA

| IC50 [1] [nM] | IC50 [2] [nM] | IC50 [3] [nM] | IC50 [4] [nM] | IC50 [5] [nM] | IC50 [6] [nM] | IC50 [7] [nM] | IC50 [8] [nM] | IC50 [9] [nM] | Compound |
| --- | --- | --- | --- | --- | --- | --- | --- | --- | --- |
| 50 to 500 | 500 to 5000 | < 50 | 500 to 5000 | < 50 | – | – | – | – | COCCN1CCC(Nc2ccc3c(c2)/C(=C(\c2ccccc2)c2nc4ccccc4[nH]2)C(=O)N3)CC1 [Entry 24, (3Z)-3-[1H-benzimidazol-2-yl(phenyl)methylidene]-5-({1-[2-(methyloxy)ethyl]piperidin-4-yl}amino)-1,3-dihydro-2H-indol-2-one] |
| 500 to 5000 | 500 to 5000 | < 50 | 500 to 5000 | – | 50 to 500 | < 50 | < 50 | < 50 | CCN1CCC(Oc2ccc3c(c2)/C(=C(\c2cccc(Cl)c2)c2nc4ccccc4[nH]2)C(=O)N3)CC1 [Entry 35, (3Z)-3-[1H-benzimidazol-2-yl(3-chlorophenyl)methylidene]-5-[(1-ethylpiperidin-4-yl)oxy]-1,3-dihydro-2H-indol-2-one] |
| 500 to 5000 | 500 to 5000 | < 50 | 500 to 5000 | – | 500 to 5000 | < 50 | < 50 | 50 to 500 | COCCN1CCC(Oc2ccc3c(c2)/C(=C(\c2cc(F)cc(F)c2)c2nc4ccccc4[nH]2)C(=O)N3)CC1 [Entry 36, (3Z)-3-[1H-benzimidazol-2-yl(3,5-difluorophenyl)methylidene]-5-({1-[2-(methyloxy)ethyl]piperidin-4-yl}oxy)-1,3-dihydro-2H-indol-2-one] |
| 50 to 500 | 500 to 5000 | < 50 | 500 to 5000 | – | 500 to 5000 | < 50 | < 50 | 50 to 500 | COCCN1CCC(Oc2ccc3c(c2)/C(=C(\c2cccc(Cl)c2)c2nc4ccccc4[nH]2)C(=O)N3)CC1 [Entry 37, (3Z)-3-[1H-benzimidazol-2-yl(3-chlorophenyl)methylidene]-5-({1-[2-(methyloxy)ethyl]piperidin-4-yl)oxy)-1,3-dihydro-2H-indol-2-one] |
| 500 to 5000 | 500 to 5000 | < 50 | 500 to 5000 | – | 50 to 500 | < 50 | < 50 | < 50 | COCCN1CCC(Nc2ccc3c(c2)/C(=C(\c2cccc(Cl)c2)c2nc4ccccc4[nH]2)C(=O)N3)CC1 [Entry 38, (3Z)-3-[1H-benzimidazol-2-yl(3-chlorophenyl)methylidene]-5-({1-[2-(methyloxy)ethyl]piperidin-4-yl}amino)-1,3-dihydro-2H-indol-2-one] |
| 500 to 5000 | 500 to 5000 | < 50 | 500 to 5000 | – | 50 to 500 | < 50 | < 50 | < 50 | COCCN1CCC(Nc2ccc3c(c2)/C(=C(\c2cccc(OC)c2)c2nc4ccccc4[nH]2)C(=O)N3)CC1 [Entry 39, (3Z)-3-{1H-benzimidazol-2-yl[3-(methyloxy)phenyl]methylidene}-5-({1-[2-(methyloxy)ethyl]piperidin-4-yl}amino)-1,3-dihydro-2H-indol-2-one] |
| 500 to 5000 | 500 to 5000 | < 50 | 500 to 5000 | – | 50 to 500 | < 50 | < 50 | < 50 | COCCN1CCC(Nc2ccc3c(c2)/C(=C(\c2cccc(Cl)c2)c2ncc[nH]2)C(=O)N3)CC1 [Entry 40, (3Z)-3-[(3-chlorophenyl)(1H-imidazol-2-yl)methylidene]-5-({1-[2-(methyloxy)ethyl]piperidin-4-yl}amino)-1,3-dihydro-2H-indol-2-one] |
| 50 to 500 | > 5000 | < 50 | 500 to 5000 | – | 50 to 500 | < 50 | < 50 | < 50 | COCCN1CCC(Nc2ccc3c(c2)/C(=C(\c2cc(F)cc(F)c2)c2nc4ccccc4[nH]2)C(=O)N3)CC1 [Entry 42] |
| 500 to 5000 | 500 to 5000 | 50 to 500 | 500 to 5000 | – | 500 to 5000 | < 50 | 50 to 500 | 50 to 500 | CCN1CCC(Oc2ccc3c(c2)/C(=C(\c2cccc(Cl)c2)c2ncc[nH]2)C(=O)N3)CC1 [Entry 44, (3Z)-3-[(3-chlorophenyl)(1H-imidazol-2-yl)methylidene]-5-[(1-ethylpiperidin-4-yl)oxy]-1,3-dihydro-2H-indol-2-one] |
| 50 to 500 | 500 to 5000 | < 50 | 500 to 5000 | – | < 50 | < 50 | < 50 | 50 to 500 | CCN1CCC(Nc2ccc3c(c2)/C(=C(\c2ccc(Cl)cc2)c2nc4ccccc4[nH]2)C(=O)N3)CC1 [Entry 45, (3Z)-3-[1H-benzimidazol-2-yl(4-chlorophenyl)methylidene]-5-[(1-ethylpiperidin-4-yl)amino]-1,3-dihydro-2H-indol-2-one] |
| 50 to 500 | 500 to 5000 | < 50 | 500 to 5000 | – | 50 to 500 | < 50 | < 50 | 50 to 500 | COCCN1CCC(Nc2ccc3c(c2)/C(=C(\c2cccc(F)c2)c2nc4ccccc4[nH]2)C(=O)N3)CC1 [Entry 46, (3Z)-3-[1H-benzimidazol-2-yl(3-fluorophenyl)methylidene]-5-({1-[2-(methyloxy)ethyl]piperidin-4-yl}amino)-1,3-dihydro-2H-indol-2-one] |
| 500 to 5000 | 500 to 5000 | 50 to 500 | 500 to 5000 | – | 500 to 5000 | < 50 | < 50 | 50 to 500 | COCCN1CCC(Nc2ccc3c(c2)/C(=C(\c2ccc(F)cc2)c2nc4ccccc4[nH]2)C(=O)N3)CC1 [Entry 47, (3Z)-3-[1H-benzimidazol-2-yl(4-fluorophenyl)methylidene]-5-({1-[2-(methyloxy)ethyl]piperidin-4-yl}amino)-1,3-dihydro-2H-indol-2-one] |
| 50 to 500 | > 5000 | < 50 | 500 to 5000 | – | 50 to 500 | < 50 | < 50 | < 50 | CCN1CCC(Nc2ccc3c(c2)/C(=C(\c2cccc(Cl)c2)c2ncc[nH]2)C(=O)N3)CC1 [Entry 48, (3Z)-3-[(3-chlorophenyl)(1H-imidazol-2-yl)methylidene]-5-[(1-ethylpiperidin-4-yl)amino]-1,3-dihydro-2H-indol-2-one] |
| < 50 | 500 to 5000 | < 50 | 500 to 5000 | – | < 50 | < 50 | < 50 | < 50 | CCN1CCC(Nc2ccc3c(c2)/C(=C(\c2ccc(C)c(F)c2)c2nc4ccccc4[nH]2)C(=O)N3)CC1 [Entry 50, (3Z)-3-[1H-benzimidazol-2-yl(3-fluoro-4-methylphenyl)methylidene]-5-{(1-ethylpiperidin-4-yl)amino]-1,3-dihydro-2H-indol-2-one] |

| Compound | IC50 [1] [nM] | IC50 [2] [nM] | IC50 [3] [nM] | IC50 [4] [nM] | IC50 [5] [nM] | IC50 [6] [nM] | IC50 [7] [nM] | IC50 [8] [nM] | IC50 [9] [nM] |
| --- | --- | --- | --- | --- | --- | --- | --- | --- | --- |
| CCN1CCC(N(C)c2ccc3c(c2)/C(=C(\c2cccc(Cl)c2)c2nc4ccccc4[nH]2)C(=O)N3)CC1 [Entry 43] | 500 to 5000 | 500 to 5000 | 50 to 500 | 500 to 5000 | – | 500 to 5000 | < 50 | 50 to 500 | 50 to 500 |
